Activity calls are given as the source filed them. The rule behind the calls is not given here.
Columns and labels:
RAW264.7 [1] = assay: Antiinflammatory activity in mouse RAW264.7 cells assessed as suppression of LPS binding by measuring LPS-FITC aggregation at 10 uM pretreated with LPS for 1 hr followed by compound addition and measured after 30 mins by flowcytometry analysis (reference value: 67.93 %); format: functional; details: 0.5 h
Staphylococcus aureus [2] = assay: Antibacterial activity against Staphylococcus aureus KCTC 1621 assessed as reduction in bacterial growth incubated for 24 hrs in presence of 2.5 mM CaCl2 by CLSI based broth dilution method; format: functional; details: read-out: MIC100
Staphylococcus aureus [3] = assay: Antibacterial activity against Staphylococcus aureus KCTC 1621 assessed as reduction in bacterial growth incubated for 24 hrs in presence of 20 % serum by CLSI based broth dilution method; format: functional; details: read-out: MIC100
Staphylococcus aureus [4] = assay: Antibacterial activity against methicillin-resistant Staphylococcus aureus CCARM 3090 assessed as reduction in bacterial growth incubated for 24 hrs in presence of oxacillin by CLSI based broth dilution method; format: functional; details: read-out: MIC100
RAW264.7 [5] = assay: Antiinflammatory activity against mouse RAW264.7 cells assessed as reduction in LPS-induced iNOS mRNA expression at 5 uM incubated for 6 hrs by qRT-PCR analysis; format: functional, cell-based
Cell membrane [6] = assay: Induction of cell membrane permeability in Escherichia coli KCTC 1682 assessed as […] at 2 times MIC by ONPG dye based spectrophotometry; format: subcellular
RAW264.7 [7] = assay: Antiinflammatory activity against mouse RAW264.7 cells assessed as reduction in LPS-induced TNFalpha mRNA expression at 10 uM incubated for 3 hrs by qRT-PCR analysis; format: functional, cell-based
Staphylococcus aureus [8] = assay: Antibacterial activity against methicillin-resistant Staphylococcus aureus CCARM 3090 assessed as fractional inhibitory concentration index incubated for 24 hrs in presence of ciprofloxacin by CLSI based broth dilution method; format: functional
[9] = Antibacterial activity against multidrug-resistant Pseudomonas aeruginosa CCARM 2095 assessed as fractional inhibitory concentration index incubated for 24 hrs in presence of chloramphenicol by CLSI based broth dilution method; format: functional
[10] = Antibacterial activity against multidrug-resistant Pseudomonas aeruginosa CCARM 2095 assessed as reduction in bacterial growth incubated for 24 hrs in presence of ciprofloxacin by CLSI based broth dilution method; format: functional; details: read-out: MIC100
Staphylococcus aureus [11] = assay: Antibacterial activity against methicillin-resistant Staphylococcus aureus CCARM 3090 assessed as fractional inhibitory concentration index incubated for 24 hrs in presence of oxacillin by CLSI based broth dilution method; format: functional
Staphylococcus aureus [12] = assay: Antibacterial activity against Staphylococcus aureus KCTC 1621 assessed as reduction in bacterial growth incubated for 24 hrs in presence of 6 uM NH4Cl by CLSI based broth dilution method; format: functional; details: read-out: MIC100
Escherichia coli [13] = assay: Antibacterial activity against Escherichia coli KCTC 1682 assessed as reduction in bacterial growth incubated for 24 hrs in presence of 4.5 mM KCl by CLSI based broth dilution method; format: functional; details: read-out: MIC100
[14] = Antibacterial activity against multidrug-resistant Pseudomonas aeruginosa CCARM 2095 assessed as reduction in bacterial growth incubated for 24 hrs in presence of oxacillin by CLSI based broth dilution method; format: functional; details: read-out: MIC100
Staphylococcus aureus [15] = assay: Antibacterial activity against methicillin-resistant Staphylococcus aureus CCARM 3090 assessed as fractional inhibitory concentration incubated for 24 hrs in presence of chloramphenicol by CLSI based broth dilution method; format: functional
[16] = Antibacterial activity against multidrug-resistant Pseudomonas aeruginosa CCARM 2095 assessed as fractional inhibitory concentration incubated for 24 hrs in presence of ciprofloxacin by CLSI based broth dilution method; format: functional
Cell membrane [17] = assay: Induction of cell membrane permeability in Staphylococcus aureus KCTC 1621 assessed as cytoplasmic membrane depolarization at 2 times MIC by DiSC3-5 dye based spectrofluorometry; format: subcellular
Escherichia coli [18] = assay: Antibacterial activity against Escherichia coli KCTC 1682 assessed as reduction in bacterial growth incubated for 24 hrs in presence of 150 mM NaCl by CLSI based broth dilution method; format: functional; details: read-out: MIC100
[19] = Antibacterial activity against multidrug-resistant Pseudomonas aeruginosa CCARM 2095 assessed as fractional inhibitory concentration index incubated for 24 hrs in presence of ciprofloxacin by CLSI based broth dilution method; format: functional
Escherichia coli [20] = assay: Antibacterial activity against Escherichia coli KCTC 1682 assessed as reduction in bacterial growth incubated for 24 hrs in presence of 6 uM NH4Cl by CLSI based broth dilution method; format: functional; details: read-out: MIC100
Staphylococcus aureus [21] = assay: Antibacterial activity against Staphylococcus aureus KCTC 1621 assessed as reduction in bacterial growth incubated for 24 hrs in presence of 4 uM FeCl3 by CLSI based broth dilution method; format: functional; details: read-out: MIC100
[22] = Antibacterial activity against multidrug-resistant Pseudomonas aeruginosa CCARM 2095 assessed as reduction in bacterial growth incubated for 24 hrs in presence of chloramphenicol by CLSI based broth dilution method; format: functional; details: read-out: MIC100
Lipopolysaccharide (LPS) [23] = assay: Displacement of BODIPY-TR cadaverine from Escherichia coli O111:B4 LPS at 10 uM measured for 100 sec by spectrofluorometry relative to control
Escherichia coli [24] = assay: Antibacterial activity against Escherichia coli KCTC 1682 assessed as reduction in bacterial growth incubated for 24 hrs in presence of 2.5 mM CaCl2 by CLSI based broth dilution method; format: functional; details: read-out: MIC100
Staphylococcus aureus [25] = assay: Antibacterial activity against Staphylococcus aureus KCTC 1621 assessed as reduction in bacterial growth incubated for 24 hrs in presence of 1 mM MgCl2 by CLSI based broth dilution method; format: functional; details: read-out: MIC100
Staphylococcus aureus [26] = assay: Antibacterial activity against methicillin-resistant Staphylococcus aureus CCARM 3090 assessed as fractional inhibitory concentration incubated for 24 hrs in presence of oxacillin by CLSI based broth dilution method; format: functional
Staphylococcus aureus [27] = assay: Antibacterial activity against methicillin-resistant Staphylococcus aureus CCARM 3090 assessed as reduction in bacterial growth incubated for 24 hrs in presence of chloramphenicol by CLSI based broth dilution method; format: functional; details: read-out: MIC100
Staphylococcus aureus [28] = assay: Antibacterial activity against methicillin-resistant Staphylococcus aureus CCARM 3090 assessed as fractional inhibitory concentration index incubated for 24 hrs in presence of chloramphenicol by CLSI based broth dilution method; format: functional
Escherichia coli [29] = assay: Antibacterial activity against Escherichia coli KCTC 1682 assessed as reduction in bacterial growth incubated for 24 hrs in presence of 4 uM FeCl3 by CLSI based broth dilution method; format: functional; details: read-out: MIC100
[30] = Antibacterial activity against multidrug-resistant Pseudomonas aeruginosa CCARM 2095 assessed as fractional inhibitory concentration incubated for 24 hrs in presence of oxacillin by CLSI based broth dilution method; format: functional
Cell membrane [31] = assay: Induction of cell membrane permeability in Escherichia coli KCTC 1682 assessed as cytoplasmic membrane […] fluorescent signals at 2 times MIC measured after 1 hr by propidium iodide dye based flow cytometry analysis (reference value: 9.8 %); format: subcellular
Escherichia coli [32] = assay: Antibacterial activity against Escherichia coli KCTC 1682 assessed as reduction in bacterial growth incubated for 24 hrs in presence of 20 % serum by CLSI based broth dilution method; format: functional; details: read-out: MIC100
Staphylococcus aureus [33] = assay: Antibacterial activity against Staphylococcus aureus KCTC 1621 assessed as reduction in bacterial growth incubated for 24 hrs in presence of 150 mM NaCl by CLSI based broth dilution method; format: functional; details: read-out: MIC100
Cell membrane [34] = assay: Induction of cell membrane permeability in Staphylococcus aureus KCTC 1621 assessed as cytoplasmic membrane depolarization at 2 times MIC by SYTOX dye based fluorescence assay; format: subcellular
RAW264.7 [35] = assay: Antiinflammatory activity in mouse RAW264.7 cells assessed as neutralization of LPS binding by measuring LPS-FITC aggregation at 10 uM pretreated with LPS for 1 hr followed by compound addition and measured after 1 hr by flowcytometry analysis (reference value: 48.12 %); format: functional
[36] = Antibacterial activity against multidrug-resistant Pseudomonas aeruginosa CCARM 2095 assessed as fractional inhibitory concentration index incubated for 24 hrs in presence of oxacillin by CLSI based broth dilution method; format: functional
Escherichia coli [37] = assay: Antibacterial activity against Escherichia coli KCTC 1682 assessed as reduction in bacterial growth incubated for 24 hrs in presence of 1 mM MgCl2 by CLSI based broth dilution method; format: functional; details: read-out: MIC100
[38] = Antibacterial activity against multidrug-resistant Pseudomonas aeruginosa CCARM 2095 assessed as fractional inhibitory concentration incubated for 24 hrs in presence of chloramphenicol by CLSI based broth dilution method; format: functional
Lipopolysaccharide (LPS) [39] = assay: Inhibition of Escherichia coli O111:B4 LPS aggregation assessed as increase in FITC-LPS dissociation by spectrofluorometry
Staphylococcus aureus [40] = assay: Antibacterial activity against methicillin-resistant Staphylococcus aureus CCARM 3090 assessed as fractional inhibitory concentration incubated for 24 hrs in presence of ciprofloxacin by CLSI based broth dilution method; format: functional
Staphylococcus aureus [41] = assay: Antibacterial activity against methicillin-resistant Staphylococcus aureus CCARM 3090 assessed as reduction in bacterial growth incubated for 24 hrs in presence of ciprofloxacin by CLSI based broth dilution method; format: functional; details: read-out: MIC100
Staphylococcus aureus [42] = assay: Antibacterial activity against Staphylococcus aureus KCTC 1621 assessed as reduction in bacterial growth incubated for 24 hrs in presence of 4.5 mM KCl by CLSI based broth dilution method; format: functional; details: read-out: MIC100

SMILES: CC[C@H](C)[C@H](NC(=O)[C@H](CCCCN)NC(=O)[C@H](CCC(=O)O)NC(=O)[C@H](CCCCN)NC(=O)[C@H](CO)NC(=O)[C@H](CCCCN)NC(=O)[C@H](CCCNC(=N)N)NC(=O)[C@H](Cc1ccccc1)NC(=O)[C@H](Cc1ccccc1)NC(=O)[C@H](CC(=O)O)NC(=O)CNC(=O)[C@H](CC(C)C)NC(=O)[C@@H](N)CC(C)C)C(=O)NCC(=O)N[C@@H](CCCCN)C(=O)N[C@@H](CCC(=O)O)C(=O)N[C@@H](Cc1ccccc1)C(=O)N[C@@H](CCCCN)C(=O)N[C@@H](CCCNC(=N)N)C(=O)N[C@H](C(=O)N[C@H](C(=O)N[C@@H](CCC(N)=O)C(=O)N[C@@H](CCCNC(=N)N)C(=O)N[C@H](C(=O)N[C@@H](CCCCN)C(=O)N[C@@H](CC(=O)O)C(=O)N[C@@H](Cc1ccccc1)C(=O)N[C@@H](CC(C)C)C(=O)N[C@@H](CCCNC(=N)N)C(=O)N[C@@H](CC(N)=O)C(=O)N[C@@H](CC(C)C)C(=O)N[C@H](C(=O)N1CCC[C@H]1C(=O)N[C@@H](CCCNC(=N)N)C(=O)N[C@H](C(=O)N[C@@H](CCC(=O)O)C(=O)N[C@@H](CO)C(=O)O)[C@@H](C)O)C(C)C)[C@@H](C)CC)C(C)C)[C@@H](C)CC [CATHELICIDIN]
- Activity (RAW264.7 [1]): 25.44%
- MIC (Staphylococcus aureus [2]): 16 µM
- MIC (Staphylococcus aureus [3]): 8 µM
- MIC (Staphylococcus aureus [4]): 128 µM
- inhibition (RAW264.7 [5]): Active
- Activity (Cell membrane [6]): Active
- inhibition (RAW264.7 [7]): Active
- fractional inhibitory concentration index (FICI) (Staphylococcus aureus [8]): 1
- fractional inhibitory concentration index (FICI) [9]: 1
- MIC [10]: 128 µM
- fractional inhibitory concentration index (FICI) (Staphylococcus aureus [11]): 0.75
- MIC (Staphylococcus aureus [12]): 8 µM
- MIC (Escherichia coli [13]): 8 µM
- MIC [14]: 128 µM
- FIC (Staphylococcus aureus [15]): 0.5
- FIC [16]: 0.25
- Activity (Cell membrane [17]): Active
- MIC (Escherichia coli [18]): 16 µM
- fractional inhibitory concentration index (FICI) [19]: 1.25
- MIC (Escherichia coli [20]): 8 µM
- MIC (Staphylococcus aureus [21]): 16 µM
- MIC [22]: 512 µM
- Activity (Lipopolysaccharide (LPS) [23]): 68%
- MIC (Escherichia coli [24]): 16 µM
- MIC (Staphylococcus aureus [25]): 8 µM
- FIC (Staphylococcus aureus [26]): 0.25
- MIC (Staphylococcus aureus [27]): 64 µM
- fractional inhibitory concentration index (FICI) (Staphylococcus aureus [28]): 0.75
- MIC (Escherichia coli [29]): 16 µM
- FIC [30]: 0.25
- Activity (Cell membrane [31]): 70.1%
- MIC (Escherichia coli [32]): 8 µM
- MIC (Staphylococcus aureus [33]): 16 µM
- Activity (Cell membrane [34]): Active
- Activity (RAW264.7 [35]): 13.98%
- fractional inhibitory concentration index (FICI) [36]: 0.75
- MIC (Escherichia coli [37]): 16 µM
- FIC [38]: 0.5
- inhibition (Lipopolysaccharide (LPS) [39]): Dose-dependent effect
- FIC (Staphylococcus aureus [40]): 0.5
- MIC (Staphylococcus aureus [41]): 256 µM
- MIC (Staphylococcus aureus [42]): 8 µM

From ChEMBL document CHEMBL4765389, “Antimicrobial and anti-inflammatory activities of short dodecapeptides derived from duck cathelicidin: Plausible mechanism of bactericidal action and endotoxin neutralization” (Eur J Med Chem, 2020)
